From patent US10973810B2, “Methods for the treatment of neurological disorders” (Yumanity Therapeutics, Inc., priority 2017, dated 2021)

Target: T1, human SCD5 (Homo sapiens, UniProt Q86SK9)
T1 construct: host or cells: S. cerevisiae ole1Δ strain (W303 pdr1Δ pdr3Δ background), plasmid pRS316 with TDH3 promoter and CYC1 terminator
T1 sequence (Q86SK9 1-330): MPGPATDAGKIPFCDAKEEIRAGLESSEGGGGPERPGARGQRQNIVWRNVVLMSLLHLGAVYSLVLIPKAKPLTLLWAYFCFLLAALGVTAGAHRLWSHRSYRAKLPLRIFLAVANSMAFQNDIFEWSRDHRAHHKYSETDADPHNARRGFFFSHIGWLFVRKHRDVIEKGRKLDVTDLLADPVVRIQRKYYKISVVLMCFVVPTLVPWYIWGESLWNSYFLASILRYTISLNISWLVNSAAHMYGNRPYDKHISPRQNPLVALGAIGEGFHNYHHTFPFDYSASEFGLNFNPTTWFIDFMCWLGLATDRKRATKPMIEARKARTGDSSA
Test: Growth of humanized yeast surviving solely on human SCD5
Format: cell-based
Details: growth inhibition
From the text: To generate yeast strains expressing SCD1 or SCD5 as the sole desaturase, the human SCD1 and SCD5 genes were cloned from cDNAs (Harvard PlasmID database Clone ID HsCD00340237 for SCD1 and HsCD00342695 for SCD5) into yeast plasmid pRS316 (ATCC 77145) between the yeast TDH3 promoter and the CYC1 terminator. The coding sequence of yeast OLE1 was also cloned into this plasmid). These clones were then transformed into the ole1d strain and plated on CSM-Ura media (CSM lacking uracil) with 2% glucose (w/v) and independent colonies were isolated and amplified.
For experiments using a plasmid-borne copy of Ole1, SCD1, or SCD5 (FIGS. 3B, 6, and 7), media lacking uracil (SX-Ura, where X is glucose, raffinose, or galactose), was used for all steps of the compound profiling protocol to ensure its maintenance throughout the assay.
After yeast delivery, assay plates were incubated under humidified conditions at 30° C. for 24 to 40 h. ApoE4 rescue experiments were stopped at 24 h, aSyn experiments at 40 h, Ole1 at 24 h, and SCD1/SCD5 at 40 h. The growth of yeast was monitored by reading the OD600 of each well using a microplate reader (Perkin Elmer EnVision™). For model rescue experiments, raw data were processed by background subtracting and calculating a fold-change relative to DMSO control [(EXP-0.035)/(DMSO-0.035)—where 0.035 is the OD600 contributed by an empty well containing 30 μL of media alone]. For growth inhibition of wild-type cells, raw data were processed by background subtracting and converting values to a percent of the nontreated condition for that strain [(EXP-0.035)/(DMSO-0.035)×100%].

## Cc1nnc(-c2ccc(N3CCC(Oc4cc(F)ccc4Cl)CC3)nn2)o1 [CAY10566]
  half-maximal inhibitory concentration (IC50), SCD5 humanized strain: low nanomolar
